The text below walks through data of patent US4791135A (priority 1987, dated 1988).

≈ marks a conversion by molar mass, not a printed value. Like-named read-outs stand apart in the source and are kept apart here.

Data set [1] concerns P. falciparum Sierra Leone (D-6) clone. Briefly: In vitro antimalarial susceptibility, 3H-hypoxanthine uptake, Sierra Leone (D-6) clone. The format is cell-based, Plasmodium falciparum. To be noted: for IC50: Plasmodium falciparum. The procedure: (§1) The former clone is a strain that is resistant to mefloquine and the latter, to chloroquine, pyrimethamine, sulfadoxine, and quinine.
(§2) In vitro assays were conducted using a modification of the semiautomated microdilution technique of Desjardins et al., Antimicrob. Agents Chemoether., 1979, Volume 16, page 710 and Milhous et al., Antimicrob. Agents Chemother., 1985, Volume 27, page 525. Two P. falciparum malaria parasite clones, designated as Indochina (W-2) and Sierra Leone (D-6), were utilized in susceptibility testing. They were derived by direct visualization and micromanipulation from patient isolates obtained by the Centers for Disease Control, Atlanta, GA in 1980 and 1982, respectively. The patients had acquired infections either in Vietnam or Sierra Leone. The Indochina clone is resistant to the antimalarials chloroquine, sulfadoxine, pyrimethamine, and quinine, whereas the Sierra Leone, is resistant to mefloquine but susceptible to chloroquine, quinine, sulfadoxine, and pyrimethamine. Test compounds were initially dissolved in DMSO and 70% ethanol and diluted in RPMI 1640 culture medium with 10% human plasma to 400 fold. Drugs were subsequently further diluted using the Cetus Pro/Pette (Perkin-Elmer Corp., Norwalk, CT) over a range of 1.56-100×10^-9 molar. Parasite inocula (at 0.5% parasitemia and a 1% hematocrit) were incubated for 24 hours and added to equimolar concentrations of each test compound prior to the addition of ^3 H-hypoxanthine. After a further incubation of 18 hours, particulate matter was harvested from each microtiter well using an automated cell harvester (Skatron, Inc., Sterling, VA). Uptake of ^3 H-hypoxanthine was measured using a scintillation spectrophotometer (Model LS3801, Beckman Instruments, Irvine, CA).

The subject of data set [2] is P. falciparum Indochina (W-2) clone. The experiment in a line: In vitro antimalarial susceptibility, 3H-hypoxanthine uptake, Indochina (W-2) clone. The format is cell-based, Plasmodium falciparum. To be noted: for IC50: Plasmodium falciparum. As to the method:
as §1, §2

A further data set can be described thus: physchem. The format is physicochemical. The procedure:
To compare the relative stability of the new agents vs. artesunic acid, stability studies of compound 8d and compound 1 were conducted in 2.5% K2 CO3 /D2 O solution at room temperature and were monitored by PMR. [drawing 8]
(§3) To a 5 mm NMR tube containing 10 mg of sample was added 0.5 mL of 2.5% K2 CO3 /D2 O solution. The initial spectrum of the solution was taken within 5 minutes, and again at intervals thereafter. The extent of hydrolysis was estimated by the following equation:
(§4) % Decomposition=(B/2A+B)×100
(§5) where A=integration of H-10 (5.80 ppm, d, J=10.8 Hz, 1H) and H-12 (5.71 ppm, s, 1H) of artesunate; B=integration of the singlet at 2.42 ppm for the potassium succinate formed. With time, the intensity of potassium succinate (2.42 ppm) signal increases, while that of H-10 and H-12 of artesunate decreases. The stability study of compound 1 in 5% NaHCO3 /D2 O was also carried out by the same procedure.

In the next data set the test system is Plasmodium berghei. The experiment in a line: In vivo suppressive blood schizonticidal and curative activity in infected mice, 60 days survival. As to conditions: for Number of Cures: cured = surviving 60 days; for Number active (A): active = survival time greater than twice control mice (12 to 14 days). More on the design: species or system Plasmodium berghei (in mice). The procedure:
The suppressive blood schizonticidal and curative activities of artemisinin, artelinic acid and artesunic acid, were measured in a test where mice were infected with 5.98×10^5 Plasmodium berghei parasitized cells intraperitoneally on day zero. […] The dose levels of compounds given were 640, 160, and 40 mg/kg/day. Blood films were taken on days 6, 13, and 20. Blood schizonticidal activity was determined by monitoring blood films for the appearance of parasites and for extended survival times compared to infected untreated controls. Mice surviving 60 days were considered cured. The infected untreated control mice (negative controls) died on either day 6 or 7. Compounds were considered active when the survival time of the treated mice was greater than twice the control mice, i.e., 12 to 14 days.

The nature of data set [3]: Stability in 5% NaHCO3/D2O at room temperature, monitored by PMR. The format is physicochemical. As to the method:
as §3, §4, §5

For data set [4] the following is noted: background, cited from earlier work.
The subject of another data set is malaria. As to conditions: background; cited from earlier work.
For another data set, the system named is cerebral malaria. As to conditions: background; cited from earlier work.
Data set [5] deals with Plasmodium falciparum D-6 (Sierra Leone clone) and W-2 (Indochina clone). The experiment in a line: In vitro antimalarial activity against both clones, summarised in words. The format is cell-based. To be noted: D-6 and W-2 clones. As to the method: as §1
as §2, with “CA). Concentration-response data were analyzed by nonlinear regression and the IC50 's (50% inhibitory concentrations) for each compound were calculated.” for “CA).”

The mark [6] stands for this setting: 40 mg/kg/day SC x 3 days, 5% NaHCO3.
Where [7] appears, read: 160 mg/kg/day SC x 3 days, 5% NaHCO3.
The mark [8] stands for this setting: 640 mg/kg/day SC x 3 days, 5% NaHCO3.
Where [9] appears, read: 40 mg/kg/day SC x 3 days, peanut oil.

Turning to `CC1CCC2C(C)C(OCCC(=O)O)OC3OC4(C)CCC1C32OO4` (stereo not drawn) [Compound 7b, Potassium 3-(10-Dihydroartemisininoxy)propionate], the “In vitro antimalarial activity IC50, Sierra Leone (D-6)” value in data set [1] came to 85.02 ng/mL. Besides, the “In vitro antimalarial activity IC50, Indochina Clone (W-2)” value in data set [2] stood at 23.28 ng/mL.

For the molecule `COC(=O)CCCOC1OC2OC3(C)CCC4C(C)CCC(C1C)C24OO3` (stereo not drawn) [Compound 5c, Methyl 4-(10-Dihydroartemisininoxy)butyrate], the IC50 in data set [1] came out at 3.06 ng/mL (≈ 7.96 nM); in data set [2], 0.95 ng/mL (≈ 2.47 nM).

In the case of `CC1CCC2C(C)C(OCc3ccc(C(=O)O)cc3)OC3OC4(C)CCC1C32OO4` (stereo not drawn) [Compound 8d, Para-(10-Dihydroartemisininoxy)methylbenzoic Acid], the detectable change result in “physchem” (2.5% K2CO3/D2O, room temperature, after 35 days) is listed as “no detectable change”. In “physchem” (2.5% k2co3/d2o), this molecule yielded a degraded at 1.5 h of 0%, a degraded at 24 h of 0%, a degraded at 48 h of 0% and a degraded at 72 h of 0%. In “physchem” (2.5% k2co3/d2o), this molecule came in with a degraded at 96 h of 0% and a degraded at 1608 h of under 3%. The “Number of Cures” value in the data set on Plasmodium berghei (setting [6]) is given as 5/5. Further, the “Number of Cures” value in the data set on Plasmodium berghei (setting [7]) is recorded as 5/5. Also, in the data set with Plasmodium berghei (setting [8]), the “Number of Cures” value is 5/5. Moreover, the “In vitro antimalarial activity IC50, Sierra Leone (D-6)” value in data set [1] was 4.07 ng/mL. In addition, the “In vitro antimalarial activity IC50, Indochina Clone (W-2)” value in data set [2] stood at 1.38 ng/mL.

Turning to `CCOC(=O)COC1OC2OC3(C)CCC4C(C)CCC(C1C)C24OO3` (stereo not drawn) [Compound 5a, Ethyl 2-(10-Dihydroartemisininoxy)acetate], the IC50 in [1] stood at 0.6 ng/mL (≈ 1.62 nM); in data set [2], 0.26 ng/mL (≈ 0.702 nM).

For the molecule `CC1CCC2C(C)C(OCCCC(=O)O)OC3OC4(C)CCC1C32OO4` (stereo not drawn) [Compound 7c, Potassium 4-(10-Dihydroartemisininoxy)butyrate], in data set [1], the “In vitro antimalarial activity IC50, Sierra Leone (D-6)” value is 75.52 ng/mL. The IC50 in [2] stood at 10.5 ng/mL.

With `C[C@H]1[C@H](OC(=O)CCC(=O)O)O[C@@H]2O[C@@]3(C)CC[C@H]4[C@H](C)CC[C@@H]1[C@@]24OO3` [Compound 1, artesunic acid], the “half-life of hydrolysis (estimated)” value was “about 4.5 days” in [3] (5% NaHCO3) and under 1 days in the data set “physchem” (2.5% K2CO3 solution). Also, the “rate of hydrolysis compared with 2.5% K2CO3/D2O” value in [3] (5% NaHCO3/D2O vs 2.5% K2CO3/D2O) is given as “slower”. Moreover, the degraded at 4 h in [3] (5% NaHCO3/D2O, room temperature, 4 hours, read-out: % Hydrolysis) is under 5%. Besides, the degraded at 48 h in data set [3] (5% NaHCO3/D2O, room temperature, 2 days, read-out: % Hydrolysis) is 22%; in “physchem” (2.5% k2co3/d2o) it was 75%. In addition, the degraded at 72 h in data set [3] (5% NaHCO3/D2O, room temperature, 3 days, read-out: % Hydrolysis) was 33%; in “physchem” (2.5% k2co3/d2o), 91%. In addition, the degraded at 96 h in data set [3] (5% NaHCO3/D2O, room temperature, 4 days, read-out: % Hydrolysis) amounted to 45%; in the data set “physchem” (2.5% k2co3/d2o) it was 98%. In [3] (5% NaHCO3/D2O, room temperature, 8 days, read-out: % Hydrolysis), the degraded at 192 h was found to be 75%. Also, in data set [3] (5% NaHCO3/D2O, room temperature, 9 days, read-out: % Hydrolysis), the degraded at 216 h came out at 82%. In “physchem” (2.5% k2co3/d2o), this molecule registered a degraded at 1.5 h of 20%. In “physchem” (2.5% k2co3/d2o), this molecule returned a degraded at 24 h of 60%. Further, the water solubility result in [4] (listed as compound 1) is “water-soluble”. In addition, the figures for the “Number active (A)” value in the data set with Plasmodium berghei (setting [6]) and with Plasmodium berghei (setting [7]) were 2/5 and 3/5, respectively. The “Number of Cures” value is reported as 0/5 with Plasmodium berghei (setting [6]), 0/5 in the data set on Plasmodium berghei (setting [7]) and 5/5 in the data set with Plasmodium berghei (setting [8]).

As to `CC1CCC2C(C)C(OCCCC(=O)O)OC3OC4(C)CCC1C32OO4` (stereo not drawn) [Compound 8c, 4-(10-Dihydroartemisininoxy)butyric Acid], the “In vitro antimalarial activity IC50, Sierra Leone (D-6)” value in [1] is 17.90 ng/mL. For the same molecule, the “In vitro antimalarial activity IC50, Indochina Clone (W-2)” value in [2] was found to be 8.04 ng/mL.

Consider `CC1CCC2C(C)C(OCCC(=O)O)OC3OC4(C)CCC1C32OO4` (stereo not drawn) [Compound 8b, 3-(10-Dihydroartemisininoxy)propionic Acid], for which the “In vitro antimalarial activity IC50, Sierra Leone (D-6)” value in data set [1] was 51.74 ng/mL. Also, inhibition in data set [2] was half-maximal at 35.6 ng/mL (≈ 100 nM) (IC50).

Take `COC(=O)c1ccc(COC2OC3OC4(C)CCC5C(C)CCC(C2C)C35OO4)cc1` (stereo not drawn) [Compound 5d, Methyl p-(10-Dihydroartemisininoxy)methylbenzoate]: the half-maximal inhibitory concentration (IC50) in data set [1] was found to be 0.77 ng/mL (≈ 1.78 nM); in [2] it was 0.37 ng/mL (≈ 0.855 nM).

On to `C[C@H]1[C@H](OC(=O)CCC(=O)O)O[C@@H]2O[C@@]3(C)CC[C@H]4[C@H](C)CC[C@@H]1[C@@]24OO3` [Sodium artesunate], for which, in data set [4], the water solubility result is reported as “water soluble”.

As to `C[C@@H]1CC[C@H]2[C@@H](C)C(=O)O[C@@H]3O[C@@]4(C)CC[C@@H]1[C@]32OO4` [Compound 3, Artemisinin], in the data set with malaria, the cross-resistance to chloroquine entry is “Neither artemisinin nor dihydroartemisinin exhibit cross-resistance to chloroquine”. The Blood films positive with Plasmodium berghei (40 mg/kg, peanut oil, SC) is reported as 3 of 5. The “Number active (A)” value with Plasmodium berghei (setting [9]) is recorded as 3/5. The “Number of Cures” value with Plasmodium berghei (setting [9]) is 2/5; in the data set with Plasmodium berghei (160 mg/kg/day SC x 3 days, peanut oil), 5/5; in the data set with Plasmodium berghei (640 mg/kg/day SC x 3 days, peanut oil), 5/5. For the same molecule, the Blood films entry in the data set on Plasmodium berghei (160 mg/kg, peanut oil, SC) is “negative”; with Plasmodium berghei (640 mg/kg, peanut oil, SC), “negative”. The 50% inhibitory concentration (IC50) amounted to 2.93 ng/mL (≈ 10.4 nM) in data set [1] and 0.66 ng/mL (≈ 2.34 nM) in data set [2]. The “efficacy against cerebral malaria in man” value with cerebral malaria is reported as “proven efficacious against cerebral malaria in man”. For the same molecule, the “cross-resistance to mefloquine, chloroquine, pyrimethamine, sulfadoxine, quinine” value in [5] is “not cross-resistant”.

As for `CC1CCC2C(C)C(OCC(=O)O)OC3OC4(C)CCC1C32OO4` (stereo not drawn) [Compound 7a, Potassium 2-(10-Dihydroartemisininoxy)acetate], the “In vitro antimalarial activity IC50, Sierra Leone (D-6)” value in data set [1] worked out at 53.79 ng/mL. For the same molecule, the IC50 in data set [2] was determined as 26.2 ng/mL.

Take `COC(=O)CCOC1OC2OC3(C)CCC4C(C)CCC(C1C)C24OO3` (stereo not drawn) [Compound 5b, Methyl 3-(10-Dihydroartemisininoxy)propionate]: the 50% inhibitory concentration (IC50) in data set [1] amounted to 1.84 ng/mL (≈ 4.97 nM); in data set [2] it was 0.64 ng/mL (≈ 1.73 nM).
